# Tests used:
# [1] = target: human recombinant dopamine D3 receptor (Homo sapiens (Human), UniProt P35462); assay: Test of binding inhibition for dopamine D3 receptor ([3H]-Methylspiperone SPA); conditions: Jump-In HEK cell membranes, 2 nM [3H]-Methylspiperone, 120 min at 25° C.; read-out: hD3_Ki
# Summary of the method: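 SPA radioligand binding on Jump-In HEK membranes expressing human D3 receptor (4 µg/well) with 2 nM [3H]-methylspiperone (final), incubated 120 min at 25 °C. Non-specific binding defined with 10 µM butaclamol. Percent inhibition computed against total and non-specific binding; Ki from dose-response curves.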
# [2] = target: human recombinant dopamine D2 receptor (Homo sapiens (Human), UniProt P14416); assay: Test of binding inhibition for dopamine D2 receptor ([3H]-Methylspiperone SPA); conditions: Jump-In HEK cell membranes, 1.2 nM [3H]-Methylspiperone, 120 min at 25° C.; read-out: hD2_Ki
# Summary of the method: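 Incubation was 120 min at 25° C. with human recombinant D2 membranes from Jump-In HEK cells (2 μg/well), WGA SPA beads (0.2 mg/well) and [3H]-Methylspiperone as radioligand.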
# [3] = target: hERG channel (IKr) (Homo sapiens (Human), UniProt Q12809); assay: hERG test (whole cell patch clamp, IKr); type: cell-based; conditions: human, CHO cells expressing hERG channel, pH 7.4, 3 μM, tail peak current
# Excerpt: Test Example 10: hERG Test
# For the purpose of assessing risk of an electrocardiogram QT interval prolongation of the compound of the present invention, effects of the compound of the present invention on delayed rectifier K+ current (IKr), which plays an important role in the ventricular repolarization process, was studied using CHO cells expressing human ether-a-go-go related gene (hERG) channel.
# After a cell was retained at a membrane potential of −80 mV by whole cell patch clamp method using an automated patch clamp system (QPatch; Sophion Bioscience A/S) and gave a leak potential of −50 mV, IKr induced by depolarization pulse stimulation at +20 mV for 2 seconds and, further, repolarization pulse stimulation at −50 mV for 2 seconds, was recorded. After the generated current was stabilized, extracellular solution (NaCl: 145 mmol/L, KCl: 4 mmol/L, CaCl2): 2 mmol/L, MgCl2: 1 mmol/L, glucose: 10 mmol/L, HEPES (4-(2-hydroxyethyl)-1-piperazineethanesulfonic acid): 10 mmol/L, pH=7.4), in which the compound of the present invention had been dissolved at an objective concentration in the extracellular solution, was applied to the cell at room temperature for 7 minutes or more. From the recording IKr, an absolute value of the tail peak current was measured based on the current value at the resting membrane potential using analysis software (QPatch Assay software; Sophion Bioscience A/S). Further, the % inhibition of tail peak current for the compound of the present invention relative to the tail peak current after application of the solution (0.1% dimethyl sulfoxide solution) was calculated to assess influence of the compound of the present invention on IKr.
# Chain of hERG channel (IKr) (Q12809 whole entry): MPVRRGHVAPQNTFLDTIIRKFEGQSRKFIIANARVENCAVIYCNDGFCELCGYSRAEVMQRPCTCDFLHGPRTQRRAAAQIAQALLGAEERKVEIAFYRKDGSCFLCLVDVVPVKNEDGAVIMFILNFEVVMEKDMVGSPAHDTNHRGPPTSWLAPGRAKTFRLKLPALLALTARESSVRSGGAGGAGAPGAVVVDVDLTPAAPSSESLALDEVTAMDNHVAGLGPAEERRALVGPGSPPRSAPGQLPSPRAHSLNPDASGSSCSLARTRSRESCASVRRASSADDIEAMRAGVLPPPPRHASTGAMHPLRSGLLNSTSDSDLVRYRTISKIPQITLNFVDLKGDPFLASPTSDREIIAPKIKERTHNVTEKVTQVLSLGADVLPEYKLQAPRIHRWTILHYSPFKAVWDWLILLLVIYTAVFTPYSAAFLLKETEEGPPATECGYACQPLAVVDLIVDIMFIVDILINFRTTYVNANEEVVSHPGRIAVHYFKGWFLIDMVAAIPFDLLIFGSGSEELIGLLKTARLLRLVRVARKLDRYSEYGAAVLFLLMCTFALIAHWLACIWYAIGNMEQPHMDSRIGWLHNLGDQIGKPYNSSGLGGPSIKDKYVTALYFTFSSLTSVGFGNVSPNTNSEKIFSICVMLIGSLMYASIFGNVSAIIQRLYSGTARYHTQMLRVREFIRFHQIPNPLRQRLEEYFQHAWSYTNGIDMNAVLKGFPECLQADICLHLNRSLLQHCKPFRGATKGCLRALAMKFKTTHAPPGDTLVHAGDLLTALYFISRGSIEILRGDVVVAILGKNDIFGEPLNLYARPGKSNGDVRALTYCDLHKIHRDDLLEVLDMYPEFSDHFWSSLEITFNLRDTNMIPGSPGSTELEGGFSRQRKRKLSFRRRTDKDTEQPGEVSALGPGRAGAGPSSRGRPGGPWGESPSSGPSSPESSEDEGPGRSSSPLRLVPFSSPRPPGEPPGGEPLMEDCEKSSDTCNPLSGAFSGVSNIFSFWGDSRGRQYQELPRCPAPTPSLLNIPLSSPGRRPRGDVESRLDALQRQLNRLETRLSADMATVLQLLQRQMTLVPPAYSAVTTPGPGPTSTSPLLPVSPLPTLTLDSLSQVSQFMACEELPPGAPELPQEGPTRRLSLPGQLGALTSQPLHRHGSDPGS
# Chain of human recombinant dopamine D3 receptor (P35462 whole entry): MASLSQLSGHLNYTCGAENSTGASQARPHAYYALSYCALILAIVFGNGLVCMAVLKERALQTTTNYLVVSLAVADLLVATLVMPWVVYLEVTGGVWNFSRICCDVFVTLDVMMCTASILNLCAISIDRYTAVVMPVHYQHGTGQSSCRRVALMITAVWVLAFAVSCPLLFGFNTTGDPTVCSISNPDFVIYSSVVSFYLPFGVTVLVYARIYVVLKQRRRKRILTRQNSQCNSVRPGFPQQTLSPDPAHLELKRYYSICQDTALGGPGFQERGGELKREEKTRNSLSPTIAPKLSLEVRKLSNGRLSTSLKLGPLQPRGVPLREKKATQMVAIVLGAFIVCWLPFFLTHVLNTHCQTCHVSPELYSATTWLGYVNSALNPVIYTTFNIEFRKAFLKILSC
# Chain of human recombinant dopamine D2 receptor (P14416 whole entry): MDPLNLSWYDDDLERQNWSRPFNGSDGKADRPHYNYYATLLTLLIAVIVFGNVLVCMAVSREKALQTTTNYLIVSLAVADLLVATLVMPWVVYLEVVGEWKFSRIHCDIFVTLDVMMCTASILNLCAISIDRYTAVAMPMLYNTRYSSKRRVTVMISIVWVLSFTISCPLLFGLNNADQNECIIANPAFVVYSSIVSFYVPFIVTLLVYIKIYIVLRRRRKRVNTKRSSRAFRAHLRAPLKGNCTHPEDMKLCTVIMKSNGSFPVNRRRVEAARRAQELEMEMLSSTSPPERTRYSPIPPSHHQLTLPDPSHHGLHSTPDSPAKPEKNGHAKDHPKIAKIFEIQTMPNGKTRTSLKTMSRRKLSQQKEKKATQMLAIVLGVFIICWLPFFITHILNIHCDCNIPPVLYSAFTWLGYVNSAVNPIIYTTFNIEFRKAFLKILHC
Compound,Ki [1] [nM],Ki [2] [nM],inhibition at 3 µM [3] [%]
Cc1nnc(CC(=O)N[C@H]2CC[C@H](CCN3CCc4sc(C5CC(F)(F)C5)nc4C3)CC2)s1 [Example I-071],0.16,450,16.6
Cc1nnc(CC(=O)N[C@H]2CC[C@](F)(CCN3CCc4nc(OCC(C)(F)F)sc4CC3)CC2)s1 [Example I-073],0.29,450,25.9
Cn1cc(/C=C/C(=O)N[C@H]2CC[C@](F)(CCN3CCc4nc(OCC(C)(F)F)sc4CC3)CC2)cn1 [Example I-074],0.025,63,31
Cn1cc(OCC(=O)N[C@H]2CC[C@](F)(CCN3CCc4nc(OCC(C)(F)F)sc4CC3)CC2)cn1 [Example I-075],0.22,240,33.8
CC[C@@H](C)Oc1ccc2c(n1)CCN(CC[C@H]1CC[C@H](NC(=O)c3cccc4nn(C)cc34)CC1)CC2 [Example I-076],0.1,> 1900,13.4
Cn1cc2c(C(=O)NN3CCC(CCN4CCc5sc(OCC(C)(F)F)nc5C4)CC3)cccc2n1 [Example I-077],0.38,> 1800,4.33
Cn1c(C(=O)NN2CCC(CCN3CCc4sc(OCC(F)(F)F)nc4C3)CC2)cccc1=O [Example I-080],0.81,2100,5.68
Cn1cc2c(C(=O)NN3CCC(CCN4CCc5sc(OCC(F)(F)F)nc5C4)CC3)ccc(F)c2n1 [Example I-081],0.2,640,5.59
Cc1ncc(/C=C/C(=O)N[C@H]2CC[C@H](CCN3CCc4nc(OC5CC(F)(F)C5)sc4CC3)CC2)cn1 [Example I-082],0.086,670,11.1
C[C@@H](Oc1nc2c(s1)CCN(CC[C@H]1CC[C@H](NC(=O)c3cccc4nn(C)cc34)CC1)CC2)C(F)(F)F [Example I-083],0.16,> 2200,25.1
CCc1ncccc1C(=O)N[C@H]1CC[C@H](CCN2CCc3ccc(OC4CCC4)nc3CC2)CC1 [Example I-088],0.8,1300,32
Cc1ncccc1C(=O)N[C@H]1CC[C@H](CCN2CCc3nc(OCCC(F)(F)F)sc3CC2)CC1 [Example I-099],0.97,1600,29.4
Cc1nnc(CC(=O)N[C@H]2CC[C@H](CCN3CCc4nc(OCCC(F)(F)F)sc4CC3)CC2)o1 [Example I-100],0.72,1500,33.9
Cn1cc(CC(=O)N[C@H]2CC[C@H](CCN3CCc4nc(OCCC(F)(F)F)sc4CC3)CC2)cn1 [Example I-101],0.3,2200,34.9
Cc1ncc(CC(=O)N[C@H]2CC[C@H](CCN3CCc4nc(OCCC(F)(F)F)sc4CC3)CC2)o1 [Example I-102],0.13,670,32.2
Cn1cc2c(C(=O)N[C@H]3CC[C@H](CCN4CCc5sc(OCC(C)(F)F)nc5C4)CC3)c(F)ccc2n1 [Example I-103],0.17,340,26
Cn1cc(CC(=O)N[C@H]2CC[C@](F)(CCN3CCc4ccc(OC5CCC5)nc4CC3)CC2)cn1 [Example I-104],0.68,> 2300,16.3
Cc1cnc(CC(=O)N[C@H]2CC[C@](F)(CCN3CCc4ccc(OC5CCC5)nc4CC3)CC2)o1 [Example I-105],0.96,> 2300,30.1
Cc1nc(CC(=O)N[C@H]2CC[C@H](CCN3CCc4nc(OCC(F)(F)F)sc4CC3)CC2)n(C)n1 [Example I-107],0.54,1000,3.75
CC[C@@H](C)Oc1ccc2c(n1)CCN(CC[C@]1(F)CC[C@@H](NC(=O)Cc3nnc(C)o3)CC1)CC2 [Example I-108],0.89,1200,1.06
CC[C@@H](C)Oc1ccc2c(n1)CCN(CC[C@]1(F)CC[C@@H](NC(=O)Cc3nnc(C)s3)CC1)CC2 [Example I-109],0.26,610,27
